Read-outs that look alike come from different tables or passages of the source.
Assay: Mouse PK studies after oral and IV dosing
Format: in vivo
Settings: for F: PO 3 mg/kg vs IV 1 mg/kg; for AUC(0-t) / clearance / half-life / Vd / Cmax / Tmax: in vivo; for clearance: read-out: IV Cl (converted); for Vd: read-out: IV VSS
Method: The pharmacokinetics of representative Compounds of the Disclosure were determined after oral and IV dosing at the concentrations indicated in mouse (Table 7). […] The vehicles used in these studies are either (i) 10% PEG400+90% PBS (adjusted to pH to 8.0 by 0.5 N NaOH); or (ii) 100% PEG200.

[1] = iv, 1 mg/kg, IV, dose 1 mg/kg, read-out: IV AUC(0 − t)
[2] = iv, 1 mg/kg, IV, dose 1 mg/kg, read-out: IV T1/2 (converted)
[3] = po, 3 mg/kg, PO, dose 3 mg/kg, read-out: PO AUC(0 − t)
[4] = po, 3 mg/kg, PO, dose 3 mg/kg, read-out: PO T1/2 (converted)

Row | SMILES | F | AUC(0-t) [1] | clearance (iv, 1 mg/kg, IV, dose 1 mg/kg) | half-life [2] | Vd (iv, 1 mg/kg, IV, dose 1 mg/kg) | Cmax (po, 3 mg/kg) | Tmax (po, 3 mg/kg) | AUC(0-t) [3] | half-life [4]
1 | C[C@H]1CC2(CCN(c3ccc(C(=O)N4CCN(C5CCN(c6ccc7c(c6)C(=O)N(C6CCC(=O)NC6=O)C7=O)CC5)CC4)cc3)CC2)CN1c1ccc(C#N)c(Cl)c1 (stereo partly drawn) [Cpd. No. 302] | 27% | 5030 ng·h/mL | 3.17 mL/min/kg | 7 h | 1.45 L/kg | 526 ng/mL | 1.3 h | 4050 ng·h/mL | 7.3 h
2 | C[C@H]1CC2(CCN(c3ccc(C(=O)N4CCN(C5CN(c6cc7c(cc6F)C(=O)N(C6CCC(=O)NC6=O)C7=O)C5)CC4)cc3)CC2)CN1c1ccc(C#N)c(Cl)c1 (stereo partly drawn) [Cpd. No. 344, 2-chloro-4-((3S)-8-(4-(4-(1-(2-(2,6-dioxopiperidin-3-yl)-6-fluoro-1,3-dioxoisoindolin-5-yl)azetidin-3-yl)piperazine-1-carbonyl)phenyl)-3-methyl-2,8-diazaspiro[4.5]decan-2-yl)benzonitrile] | 64% | 4930 ng·h/mL | 3.17 mL/min/kg | 6.9 h | 1.58 L/kg | 841 ng/mL | 4 h | 9470 ng·h/mL | 6 h
3 | C[C@H]1CC2(CCN(c3ccc(C(=O)N4CCN(C5CN(c6ccc7c(c6)CN(C6CCC(=O)NC6=O)C7=O)C5)CC4)cc3)CC2)CN1c1ccc(C#N)c(Cl)c1 (stereo partly drawn) [Cpd. No. 346, 2-chloro-4-((3S)-8-(4-(4-(1-(2-(2,6-dioxopiperidin-3-yl)-1-oxoisoindolin-5-yl)azetidin-3-yl)piperazine-1-carbonyl)phenyl)-3-methyl-2,8-diazaspiro[4.5]decan-2-yl)benzonitrile] | 32% | 3030 ng·h/mL | 5 mL/min/kg | 8.8 h | 2.7 L/kg | 260 ng/mL | 3.3 h | 2950 ng·h/mL | 7.2 h
4 | C[C@H]1CC2(CCN(c3ccc(C(=O)N4CCN(C5CN(c6ccc7c(c6)C(=O)N(C6CCC(=O)NC6=O)C7)C5)CC4)cc3)CC2)CN1c1ccc(C#N)c(Cl)c1 (stereo partly drawn) [Cpd. No. 348, 2-chloro-4-((3S)-8-(4-(4-(1-(2-(2,6-dioxopiperidin-3-yl)-3-oxoisoindolin-5-yl)azetidin-3-yl)piperazine-1-carbonyl)phenyl)-3-methyl-2,8-diazaspiro[4.5]decan-2-yl)benzonitrile] | 12% | 10100 ng·h/mL | 1.67 mL/min/kg | 7.5 h | 0.9 L/kg | 334 ng/mL | 2 h | 3740 ng·h/mL | 7.6 h
5 | C[C@H]1CC2(CCN(c3ccc(C(=O)N4CCC(CN5CCN(c6ccc7c(c6)C(=O)N(C6CCC(=O)NC6=O)C7=O)CC5)CC4)cc3)CC2)CN1c1ccc(C#N)c(Cl)c1 (stereo partly drawn) [Cpd. No. 442, 2-chloro-4-((3S)-8-(4-(4-((4-(2-(2,6-dioxopiperidin-3-yl)-1,3-dioxoisoindolin-5-yl)piperazin-1-yl)methyl)piperidine-1-carbonyl)phenyl)-3-methyl-2,8-diazaspiro[4.5]decan-2-yl)benzonitrile] | 42% | 5240 ng·h/mL | 2.83 mL/min/kg | 9.2 h | 1.7 L/kg | 847 ng/mL | 2.67 h | 6570 ng·h/mL | 5.37 h
6 | C[C@H]1CC2(CCN(c3ccc(C(=O)N4CCC(N5CCN(c6ccc7c(c6)C(=O)N(C6CCC(=O)NC6=O)C7=O)CC5)CC4)cc3)CC2)CN1c1ccc(C#N)c(Cl)c1 (stereo partly drawn) [Cpd. No. 443, 2-chloro-4-((3S)-8-(4-(4-(4-(2-(2,6-dioxopiperidin-3-yl)-1,3-dioxoisoindolin-5-yl)piperazin-1-yl)piperidine-1-carbonyl)phenyl)-3-methyl-2,8-diazaspiro[4.5]decan-2-yl)benzonitrile] | 67% | 8440 ng·h/mL | 2 mL/min/kg | 7.1 h | 1.02 L/kg | 1870 ng/mL | 2 h | 15500 ng·h/mL | 5.38 h
